Where two headings read alike, the source gives them in different places.
Experiments:
[1] = biological target: T1, Photosystem II (PSII) (Synechocystis sp., UniProt P09192+P16033); test: Oxygen evolution assay (Clarke-type electrode); type: biochemical, Synechocystis sp. PCC6803
T1 construct: made in house; host or cells: Synechocystis sp; PCC6803 strain with His-tagged CP47; thylakoid membranes
Protocol: Oxygen evolution assays were performed using 50 mM MES, pH 6.5, 10 mM NaCl, 5 mM MgCl2, 20 mM CaCl2 using a Clarke-type electrode (Hansatech Instruments, Ltd.). 2 mM ferricyanide and either 300 μM 2,5-dicholor-1,4-benzoquinone (DCBQ) or 50 μM DQ was added as electron acceptor with […] of ChlA of the sample to a final volume of 1.5 mL. The reaction took place at 28° C. and was initiated by red light at 2800 μmol s^−1 m^−2.

[2] = system: T2, CMI:PSII proteoliposomes; test: NAD+ photoreduction assay of CMI:PSII proteoliposomes (NADH fluorescence); type: biochemical, E. coli (CMI), Synechocystis sp. PCC6803 (PSII); conditions: for Max Rate NAD^+ Photoreduction: 4PSII:1CMI proteoliposomes; for Sum NADH: production plus remaining
T2 construct: made in house; host or cells: CMI from E. coli strain ANN0221; PSII from Synechocystis sp; PCC6803 (His-tagged CP47); co-reconstituted in E. coli lipid liposomes
Protocol: (§1) Photoreduction by CMI:PSII proteoliposomes were routinely performed at 28° C. in 5 mM MES, pH 6.5, 50 mM KCl, 5 mM MgCl2 2 mM CaCl2, 25 µL of proteoliposomes were added to 175 μL assay mixture containing 50 μM DQ, 0.2 μM valinomycin, 2.5 μM ACMA; and for decoupling and inhibition assays: 5 μM CCCP and 100 μM DCMU, respectively. The potassium ionophore, valinomycin, was added to collapse the electrical component of the PMF and generate a higher ΔpH. Without being bound by any theory, the reverse electron transfer activity of CMI is believed to be more dependent on the proton component of the […] than the electrical component of the […]. Saturating white light >2200 μmol photons m^−2 s^−1 was provided by a 100 W Mercury lamp. The light was passed through a 2 L water bath. The reaction was monitored using Flexstation 3 (Molecular Devices, Inc.), NADH concentration was monitored by fluorescence spectroscopy (λexictation=340 nm, λemission=455 nm), while the proton gradient generation was determined by the change in ACMA signal (λexictation=410 nm, λemission=480 nm).

[3] = system: T2, CMI:PSII proteoliposomes; test: Proton gradient (ACMA signal) of CMI:PSII proteoliposomes; type: biochemical, E. coli (CMI), Synechocystis sp. PCC6803 (PSII); conditions: 100 μM DCMU
Protocol: as §1

[4] = system: bacteriorhodopsin (bR) and CMI proteoliposomes; type: biochemical, H. salinarum (bR), E. coli (CMI); conditions: 0.2 μM valinomycin compared with 0.1 μM
Protocol: (§2) Liposome preparation, enzyme reconstitution, NAD^+ photoreduction, and proton pumping assays were performed as described above.
(§3) The pH-sensitive fluorophore 9-amino-6-chloro-2-methoxyacridine (ACMA) was used to conduct proton pumping assays. The rates of ACMA quenching were measured for CMI bR independently. Because of the non-linear relationship between ACMA quenching and ΔpH [54-55], the rate of ACMA quenching and de-quenching were calculated using the linear region of the ACMA signal, between 40-70% of the baseline.

[5] = biological target: T3, Respiratory Complex I (CMI, NADH:ubiquinone oxidoreductase) (Escherichia coli, UniProt P0AFC7+P0AFD4+P31979+P33599); type: biochemical, E. coli
T3 construct: made in house; host or cells: E. coli overexpression strain ANN0221
Protocol: (§4) Complex I NADH:DQ oxidoreductase and proton pumping activity were measured simultaneously using a Flexstation 3 (Molecular Devices, Inc.). NADH:DQ oxidoreductase activity was monitored through NADH oxidation by fluorescence spectroscopy (λexictation=340 nm, λemission=455 nm), while proton gradient generation was determined by quenching of ACMA (λexictation=410 nm, λemission=480 nm). The assay was conducted at 28° C. in the corresponding buffer, 25 μL of proteoliposomes were added to 175 μL assay mixture containing 100 μM DQ, 200 μM NADH, 0.2 μM valinomycin, 2.5 μM ACMA and for decoupling and inhibition assays 5 μM CCCP (carbonyl cyanide 3-chlorophenylhydrazone) and 50 μM Piericidin A, respectively. The sample was incubated for 5 min prior to reaction initiation by addition of NADH. When conducting inhibition assays proteoliposomes were incubated for 5 min with Piericidin A before the addition of DQ.

[6] = biological target: T3, Respiratory Complex I (CMI, NADH:ubiquinone oxidoreductase); test: Complex I proton pumping (ACMA quenching) in CMI proteoliposomes; type: biochemical, E. coli
Protocol: as §4

[7] = biological target: (+)CMI-(+)bR proteoliposomes (Escherichia coli, UniProt P0AFC7+P0AFD4+P31979+P33599); type: biochemical, E. coli (CMI), H. salinarum (bR)
Protocol: as §1, §2
In this study, an engineered artificial organelle capable of photoreduction of NAD^+ was created by vectorially integrating bR from H. salinarum and CMI from E. coli into proteoliposomes. The power source for this system is light which activates the proton translocation by bR. As a result, accumulation of H^+ within the lumen creates a proton motive force (PMF). The PMF is requisite to diminish the thermodynamic gap of the standard redox potentials between NADH/NAD^+ and QH2/Q. Reducing the thermodynamic barrier enables CMI to perform reverse electron transfer (RET) from QH2 to NAD^+ [10, 46].
The experiments were initially conducted to determine whether the (+)CMI-(+)bR proteoliposomes could reduce NAD^+ and find suitable assay conditions.

[8] = biological target: T4, bacteriorhodopsin (bR) and CMI proteoliposomes (Escherichia coli, UniProt P0AFC7+P0AFD4+P31979+P33599); type: biochemical, H. salinarum (bR), E. coli (CMI); conditions: 50 μM Piericidin A
T4 construct: Bacteriorhodopsin from H. salinarum was purified using tangential flow filtration; made in house; host or cells: bR purified from H. salinarum; CMI from E. coli strain ANN0221; co-reconstituted in liposomes
Protocol: as §2, §3

[9] = CMI reconstituted with detergent at 3.8 mM
[10] = CMI reconstituted with detergent at 7 mM
[11] = CMI reconstituted with detergent at 1.8 mM
[12] = PSII reconstituted with detergent at 7 mM
[13] = CMI reconstituted with detergent at 18 mM
[14] = CMI reconstituted with detergent at 26 mM

## CN(C)C(=O)Nc1ccc(Cl)c(Cl)c1 [DCMU, 3-(3,4-dicholorophenyl)-1,1-dimethylurea]
[1]; 100 μM DCMU (FIG. 10)
  inhibition of isolated PSII: 70%
[2]; 100 μM DCMU inhibited sample
  average rate of NADH production after removal of light: −170.65±2.26 nmol min^−1 mg CMI^−1
[2]; 100 μM DCMU, illumination minus post illumination rates
  rate of NADH production of inhibited sample relative to non-inhibited sample: 39.05%±7.64
[2]; proteoliposomes incubated 5 minutes with 100 μM DCMU
  maximum rate of NADH production under illumination: 6.44±24.97 nmol min^−1 mg CMI^−1
[3]
  ACMA signal increase relative to non-inhibited sample: approximately 60%

## CC(C)[C@@H]1NC(=O)[C@H](C)OC(=O)[C@@H](C(C)C)NC(=O)[C@@H](C(C)C)OC(=O)[C@H](C(C)C)NC(=O)[C@H](C)OC(=O)[C@@H](C(C)C)NC(=O)[C@@H](C(C)C)OC(=O)[C@H](C(C)C)NC(=O)[C@H](C)OC(=O)[C@@H](C(C)C)NC(=O)[C@@H](C(C)C)OC1=O [valinomycin]
[4]
  ACMA quenching: quenched the ACMA more than 0.1 μM

## CCCCCCCCCCCCO[C@@H]1O[C@H](CO)[C@@H](O[C@H]2O[C@H](CO)[C@@H](O)[C@H](O)[C@H]2O)[C@H](O)[C@H]1O [DDM, n-dodecyl-β-D-maltopyranoside]
[5]; [9]
  NADH:DQ oxidoreductase activity: 13.43 umol min^−1 mg CMI^−1
[5]; [10]
  NADH:DQ oxidoreductase activity: 0.76 umol min^−1 mg CMI^−1
[6]; [9]
  ACMA Fluorescence decrease: 1.46%
[6]; [10]
  ACMA Fluorescence decrease: 0.32%
[1]; PSII reconstituted with detergent at 3.8 mM
  O2 Evolution (mean ± S.D.): 565.87 ± 25.19 umol O2 hr^−1 ug ChIA
[1]; PSII reconstituted with detergent at 6.8 mM
  O2 Evolution (mean ± S.D.): 396.55 ± 69.76 umol O2 hr^−1 ug ChIA

## polyethylene glycol p-(1,1,3,3-tetramethylbutyl)-phenyl ether [Triton X-100 ™]
[5]; [11]
  NADH:DQ oxidoreductase activity: −0.00 umol min^−1 mg CMI^−1
[5]; [10]
  NADH:DQ oxidoreductase activity: 9.05 umol min^−1 mg CMI^−1
[6]; [11]
  ACMA Fluorescence decrease: −2.75%
[6]; [10]
  ACMA Fluorescence decrease: −4.90%
[1]; PSII reconstituted with detergent at 1.8 mM
  O2 Evolution (mean ± S.D.): 530.72 ± 2.53 umol O2 hr^−1 ug ChIA
[1]; [12]
  O2 Evolution (mean ± S.D.): 218.69 ± 67.01 umol O2 hr^−1 ug ChIA

## N#CC(C#N)=NNc1cccc(Cl)c1 [CCCP, carbonyl cyanide 3-chlorophenylhydrazone]
[6]; incubation with 5 μM CCCP
  change in ACMA fluorescence of CMI proteoliposomes: minimal change in ACMA fluorescence
[7]
  response of NADH production: negative and significant response

## C/C=C(\C)[C@H](O)[C@H](C)/C=C(C)/C=C/C/C(C)=C/Cc1nc(OC)c(OC)c(O)c1C [Piericidin A]
[5]; 50 μM Piericidin A
  inhibition of NADH:DQ oxidoreductase specific activity of CMI proteoliposomes: > 95%
[5]; 50 μM Piericidin A, (+)CMI-(−)bR proteoliposomes (FIG. 13)
  inhibition of NADH oxidation by CMI: > 95%
[7]; 50 μM Piericidin A
  effect on NAD^+ reductase rates: significantly increased
[7]; 50 μM Piericidin A, 0.0 mM DTT
  NAD^+ reductase rate relative to samples with no Piericidin A: ~3 times
[7]; 50 μM Piericidin A, 1.0 mM DTT
  NAD^+ reductase rate relative to samples with no Piericidin A: ~4 times
[7]; after 35 minutes, Piericidin A present
  reduction of the rate of NADH produced: 95%
[8]; 0.0 mM DTT
  rate of ACMA signal increase during photoreduction: 3.96±0.64 ACMA % min^−1
[8]; 1.0 mM DTT
  rate of ACMA signal increase during photoreduction: 3.15±0.94 ACMA % min^−1

## CCCCCCCCO[C@@H]1O[C@H](CO)[C@@H](O)[C@H](O)[C@H]1O [OG, n-octyl-β-D-glucoside]
[5]; [13]
  NADH:DQ oxidoreductase activity: 5.24 umol min^−1 mg CMI^−1
[5]; [14]
  NADH:DQ oxidoreductase activity: 8.95 umol min^−1 mg CMI^−1
[6]; [13]
  ACMA Fluorescence decrease: 0.71%
[6]; [14]
  ACMA Fluorescence decrease: −0.16%
[1]; PSII reconstituted with detergent at 18 mM
  O2 Evolution (mean ± S.D.): 306.95 ± 44.24 umol O2 hr^−1 ug ChIA
[1]; PSII reconstituted with detergent at 26 mM
  O2 Evolution (mean ± S.D.): 481.01 ± 192.16 umol O2 hr^−1 ug ChIA

## NC(=O)C1=CN([C@@H]2O[C@H](COP(=O)(O)OP(=O)(O)OC[C@H]3O[C@@H](n4cnc5c(N)ncnc54)[C@H](O)[C@@H]3O)[C@@H](O)[C@H]2O)C=CC1 [NADH]
[2]; 100 μM NADH injected
  Max Production of NADH: 8.04 µM
  NADH remaining prior to photoreduction: 2.05 µM
  Max Rate NAD^+ Photoreduction: 132.30 nmol min^−1 mg CMI^−1
  Sum NADH: 10.08 µM
[2]; 200 μM NADH injected
  Max Production of NADH: 9.10 µM
  NADH remaining prior to photoreduction: 4.10 µM
  Max Rate NAD^+ Photoreduction: 213.32 nmol min^−1 mg CMI^−1
  Sum NADH: 13.20 µM
[2]; 300 μM NADH injected
  Max Production of NADH: 6.48 µM
  NADH remaining prior to photoreduction: 8.19 µM
  Max Rate NAD^+ Photoreduction: 178.71 nmol min^−1 mg CMI^−1
  Sum NADH: 14.67 µM
[2]; 400 μM NADH injected
  Max Production of NADH: 1.53 µM
  NADH remaining prior to photoreduction: 13.41 µM
  Max Rate NAD^+ Photoreduction: 57.45 nmol min^−1 mg CMI^−1
  Sum NADH: 14.94 µM

## C[C@H](CCC(=O)NCCC[N+](C)(C)CCCS(=O)(=O)[O-])[C@H]1CC[C@H]2[C@@H]3[C@H](O)C[C@@H]4C[C@H](O)CC[C@]4(C)[C@H]3C[C@H](O)[C@]12C [CHAPS, 3-[(3-cholamidopropyl)dimethylammonio]-1-propanesulfonate]
[6]; CMI reconstituted with detergent at 3.0 mM
  ACMA Fluorescence decrease: 0.58%
[6]; [10]
  ACMA Fluorescence decrease: 74.54%
[1]; PSII reconstituted with detergent at 3.0 mM
  O2 Evolution (mean ± S.D.): 178.08 ± 9.91 umol O2 hr^−1 ug ChIA
[1]; [12]
  O2 Evolution (mean ± S.D.): 509.24 ± 256.84 umol O2 hr^−1 ug ChIA

— patent US12344878B2, “Artificial organelles for enzymatic cofactor reduction” (priority 2020, dated 2025)
